Source: patent US12365687B2 (Hoffmann-La Roche Inc., priority 2021, dated 2025)

What was measured:
[1] = target: α2β2γ1 GABAA receptor subtype (Homo sapiens (Human), UniProt P47869+Q8N1C3); assay: Two-electrode voltage clamp electrophysiology in Xenopus oocytes expressing GABAA receptors (modulation of GABA EC20 current); format: cell-based; settings: for Efficacy (GABA)%: % modulation of GABA EC20 = 100*(Fold increase-1), α2β2γ1 oocytes, compound at approx. 30-fold Ki; for Fold increase h-GABA-A α2β2γ1 oocyte @ 30-fold Ki: Xenopus oocytes expressing α2β2γ1, compound at approx. 30-fold its Ki α2β2γ1, GABA EC20 current; for potentiation of the GABA-induced current: α2β2γ1 GABAA receptor subtype expressing oocytes, GABA EC20
Description: Xenopus laevis oocytes at maturation stages V-VI were used for the expression of cloned mRNA encoding GABAA receptor subunits. Oocytes ready for RNA micro-injection were bought from Ecocyte, Castrop-Rauxel, Germany and stored in modified Barth's medium (composition in mM: NaCl 88, KCl 1, NaHCO3 2.4, HEPES 10, MgSO4 0.82, CaNO3 0.33, CaCl2 0.33, pH=7.5) at 20° C. until the experiment.
Oocytes were plated in 96-well plates for microinjection using the Roboinject automated instrument (MultiChannelSystems, Reutlingen, Germany). Approximately 50 nL of an aqueous solution containing the RNA transcripts for the subunits of the desired GABAA receptor subtype was injected into each oocyte. […] Oocytes were kept in modified Barth's medium (composition in mM: NaCl 88, KCl 1, NaHCO3 […], HEPES 10, MgSO4 0.82, CaNO3 0.33, CaCl2 0.33, pH=7.5) at 20° C. until the experiment.
Electrophysiological experiments were performed using the Roboocyte instrument (MultiChannelSystems, Reutlingen, Germany) on days 3 to 5 after the micro-injection of mRNA. During the experiment the oocytes were constantly superfused by a solution containing (in mM) NaCl 90, KCl 1, HEPES 5, MgCl2 1, CaCl2 1 (pH 7.4). Oocytes were impaled by two glass microelectrodes (resistance: 0.5-0.8 MΩ) which were filled with a solution containing KCl 1M+K-acetate 1.5 M and voltage-clamped to −80 mV. The recordings were performed at room temperature using the Roboocyte two-electrode voltage clamp system (Multichannelsystem). After an initial equilibration period of 1.5 min GABA was added for 1.5 min at a concentration evoking approximately 20% of a maximal current response (EC20). After another rest interval of 2.5 min GABA was again added evoking a response of similar amplitude and shape. […] Current traces were recorded at a digitization rate of 10 Hz during and shortly before and after the GABA application.
Each compound and concentration was tested on at least 3 oocytes. Different oocytes were used for different compound concentrations.
For the analysis, the digitized current traces of the first and second GABA response were superimposed and, if necessary, rescaled to equal maximal amplitudes. The ratio between the two responses during the time interval of test compound application was calculated point by point. The extremum of the resulting “ratio trace” was taken as the efficacy (“Fold increase”) of the compound expressed as “% modulation of GABA EC20” (100*(Fold increase-1)).

[2] = target: human GABAA α1β3γ2 receptor (Homo sapiens (Human), UniProt P14867+P18507); assay: Radioligand binding assay for γ2-containing GABAA subtypes, [3H]Flumazenil competition (α1β3γ2); settings: for γ2/γ1 Selectivity Ratio: Ki α1β3γ2 (nM)/Ki α2β2γ1 (nM); for LogSel: Log[Ki α1β3γ2 (nM)/Ki α2β2γ1 (nM)]
Description: The affinity of compounds at GABAA γ2 subunit-containing receptors was measured by competition for [^3H]Flumazenil (81.1 Ci/mmol; Roche) binding to HEK293F cells expressing human (transiently transfected) receptors of composition α1β3γ2.
Harvested pellets from HEK293F cells expressing the different GABAA γ2 receptor subtypes were resuspended in Mannitol Buffer pH 7.2-7.4 and processed as described above for the cells expressing the GABAA γ1 subunit-containing receptors.
Assays were incubated to equilibrium for 1 hour at 4° C. and harvested onto GF/C uni-filters (Packard) by filtration using a Packard harvester and washing with ice-cold wash buffer (50 mM Tris; pH 7.5). After anhydrousing, filter-retained radioactivity was detected by liquid scintillation counting. Ki values were calculated using Excel-Fit (Microsoft) and are the means of two determinations.

[3] = target: human GABAA α5β2γ1 receptor (Homo sapiens (Human), UniProt P31644+Q8N1C3); assay: Radioligand binding assay for γ1-containing GABAA subtypes, [3H]RO7239181 competition (α5β2γ1)
Description: (§1) The affinity of compounds at GABAA γ1 subunit-containing receptors was measured by competition for [^3H]RO7239181 (67.3 Ci/mmol; Roche) binding to membranes from HEK293F cells (ThermoFisher R79007) expressing human (transiently transfected) receptors of composition α5β2γ1, α2β2γ1, α1β2γ1.
(§2) Harvested pellets from HEK293F cells expressing the different GABAA receptor subtypes were resuspended in Mannitol Buffer pH 7.2-7.4 (Mannitol 0.29 M, Triethylamine 10 mM, Acetic acid 10 mM, EDTA 1 mM plus protease inhibitors (20 tablets Complete, Roche Diagnostics Cat. No. 05 056 489 001 per liter)), washed two times and then resuspended at 1:10 to 1:15 dilution in the same buffer. Cell disruption was performed by stirring the suspension in a Parr vessel #4637 at 435 psi for 15 minutes, and then the suspensions were centrifuged at 1000×g for 15 minutes at 4° C. (Beckman Avanti J-HC; rotor JS-4.2). The supernatant (S1) was transferred in a 2 l Schott flask and the pellet (P1) was resuspended with Mannitol Buffer up to 175 ml. The resuspended pellet was transferred into a 250 ml Corning centrifugal beaker and centrifuged at 1500×g for 10 minutes at 4° C. (Beckman Avanti J-HC; rotor JS-4.2). The supernatant (S1) was then transferred in the 2 l Schott flask and the pellet was discarded. The supernatants (S1) were centrifuged in 500 ml Beckman polypropylene centrifugal beaker at 15′000×g for 30 minutes at 4° C. (Beckman Avanti J-20 XP; rotor JLA-10.500). The pellet (P2) was resuspended with Mannitol Buffer 1:1 and frozen at −80° C. The supernatant (S2) was centrifuged in 100 ml Beckman polypropylene centrifugal tubes at 48000×g for 50 minutes at 4° C. (Beckman Avanti J-20 XP; rotor JA-18). The supernatant (S3) was discarded and the pellet (P3) was resuspended with 1:1 Mannitol Buffer. The P2 and P3 protein concentration was determined with the BIORAD Standard assay method with bovine serum albumin as standard and measured on the NANO-Drop 1000. The membrane suspension was aliquots (500 μl per tube) and stored at −80° C. until required.
(§3) Membrane homogenates were resuspended and polytronised (Polytron PT1200E Kinematica AG) in Potassium Phosphate 10 mM, KCl 100 mM binding buffer at pH 7.4 to a final assay concentration determined with a previous experiment.
(§4) Assays were incubated to equilibrium for 1 hour at 4° C. and then, membranes were filtered onto unifilter (96-well white microplate with bonded GF/C filters preincubated 20-50 minutes in 0.3% Polyethylenimine) with a Filtermate 196 harvester (Packard BioScience) and washed 4 times with cold Potassium Phosphate 10 mM pH 7.4, KCl 100 mM binding buffer. After anhydrousing, filter-retained radioactivity was detected by liquid scintillation counting. Ki values were calculated using Excel-Fit (Microsoft) and are the means of two determinations.

[4] = target: human GABAA α2β2γ1 receptor (Homo sapiens (Human), UniProt P47869+Q8N1C3); assay: Radioligand binding assay for γ1-containing GABAA subtypes, [3H]RO7239181 competition (α2β2γ1)
Description: as §1, §2, §3, §4

[5] = Ki h-GABAA α2β2γ1, [3H]RO7239181 competition binding, human GABAA α2β2γ1
[6] = Ki h-GABAA α2β2γ1, displacement of [3H]RO7239181, membranes of HEK293F cells expressing human receptors, means of two determinations
[7] = Ki h-GABAA α2β2γ1, Table 3, reference compounds

SMILES	Efficacy (GABA)% [1] [%]	Fold increase h-GABA-A α2β2γ1 oocyte @ 30-fold Ki [1]	Ki [2] [nM]	γ2/γ1 Selectivity Ratio [2]	LogSel [2]	Ki [3] [nM]	Ki [4, 5] [nM]	Ki [4, 6] [nM]	potentiation of the GABA-induced current [1] [%]	LogSel ([2]; Table 3)	γ2/γ1 Selectivity Ratio ([2]; Table 3)	Ki [4, 7] [nM]
COCCNC(=O)c1nc2n(n1)-c1ccc(Cl)c(Cl)c1C(c1c(F)cccc1F)=N[C@H]2C [Example 28, (4S)-7,8-dichloro-6-(2,6-difluorophenyl)-N-(2-methoxyethyl)-4-methyl-4H-[1,2,4]triazolo[1,5-a][1,4]benzodiazepine-2-carboxamide]	56	1.56	578	147.4	2.17	1.08	3.9	3.92				
C[C@@H]1N=C(c2c(F)cccc2F)c2c(ccc(C(F)(F)F)c2Cl)-n2nc(NC(=O)NC3CC3)nc21 [Example 126, 1-[(4S)-7-chloro-6-(2,6-difluorophenyl)-4-methyl-8-(trifluoromethyl)-4H-[1,2,4]triazolo[1,5-a][1,4]benzodiazepin-2-yl]-3-cyclopropyl-urea]	38	1.38	4600	451.4	2.65	3.23	10.2	10.2				
C[C@@H]1N=C(c2ncccc2F)c2c(ccc(Cl)c2Cl)-n2nc(C(=O)N3CCC3)nc21 [Example 42, azetidin-1-yl-[(4S)-7,8-dichloro-6-(3-fluoro-2-pyridyl)-4-methyl-4H-[1,2,4]triazolo[1,5-a][1,4]benzodiazepin-2-yl]methanone]	114	2.14	2630	52.5	1.72	4.24	50.1	50.1				
C[C@@H]1N=C(c2ncccc2F)c2c(ccc(C(F)(F)F)c2Cl)-n2nc(C(=O)N3CC(C(F)F)C3)nc21 [Example 142, [(4S)-7-chloro-6-(3-fluoro-2-pyridyl)-4-methyl-8-(trifluoromethyl)-4H-[1,2,4]triazolo[1,5-a][1,4]benzodiazepin-2-yl]-[3-(difluoromethyl)azetidin-1-yl]methanone]	123	2.23	> 30000	756.0	2.88	8.06	39.7	39.7				
Cc1ncc2n1-c1ccc(Cl)cc1C(c1ccccc1F)=NC2 [Midazolam, reference compound]									~60	−2.2		
C[C@@H]1N=C(c2ncccc2F)c2c(ccc(C(F)(F)F)c2Cl)-n2nc(C(=O)NCCF)nc21 [Example 152, (4S)-7-chloro-N-(2-fluoroethyl)-6-(3-fluoro-2-pyridyl)-4-methyl-8-(trifluoromethyl)-4H-[1,2,4]triazolo[1,5-a][1,4]benzodiazepine-2-carboxamide]			> 30000	333.7	2.52	20.4	89.9	89.9				
Fc1cccc(F)c1C1=NCc2nc(C(F)F)cn2-c2ccc(Br)c(Cl)c21 [Example 3, 8-bromo-7-chloro-2-(difluoromethyl)-6-(2,6-difluorophenyl)-4H-benzo[f]imidazo[1,2-a][1,4]diazepine]			455	15.0	1.18	1.28	30.2	30.2				
C[C@@H]1N=C(c2c(F)cccc2F)c2c(ccc(C(F)(F)F)c2Cl)-n2nc(C(=O)N3CC(OC(F)F)C3)nc21 [Example 51, [3-(difluoromethoxy)azetidin-1-yl]-[(4S)-7-chloro-6-(2,6-difluorophenyl)-4-methyl-8-(trifluoromethyl)-4H-[1,2,4]triazolo[1,5-a][1,4]benzodiazepin-2-yl]methanone]			1560	53.3	1.73							
CN(C)C(=O)c1nc2n(n1)-c1ccc(Cl)cc1C(c1ccccc1F)=NC2 [RE-A, reference compound]			35.6								0.13	276
CN1C(=O)CN=C(c2ccccc2F)c2cc([N+](=O)[O-])ccc21 [Flunitrazepam, reference compound]									~60			
Cc1nnc2n1-c1ccc(Cl)cc1C(c1ccccc1Cl)=NC2 [Triazolam, reference compound]									~60	−1.5		
CCOC(=O)c1nc2n(n1)-c1ccc(Cl)cc1C(c1ccccc1F)=NC2 [RE-B, reference compound]			3.4								0.18	18.4
Cc1nnc2n1-c1ccc(Cl)cc1C(c1ccccc1)=NC2 [Alprazolam, reference compound]										−2.3		
